# In PMC12813973, “Consequences of Peptide Macrocyclization Revealed by Virus-Inspired β‑Hairpin Mimetics” (ACS Chemical Biology, 2025):
# Read-outs that look alike come from different tables or passages of the source.
# Experiments:
# [1] = target: T1, STAT1 (Homo sapiens, UniProt P42224); assay: Isothermal titration calorimetry (ITC) of peptide binding to STAT1
# T1 construct: full-length STAT1 (Uniprot #P42224-1) was expressed in E. coli; His tag (pEXP-NHis vector) (N); made in house; host or cells: E. coli T7 Express
# T1 sequence (P42224 1-750): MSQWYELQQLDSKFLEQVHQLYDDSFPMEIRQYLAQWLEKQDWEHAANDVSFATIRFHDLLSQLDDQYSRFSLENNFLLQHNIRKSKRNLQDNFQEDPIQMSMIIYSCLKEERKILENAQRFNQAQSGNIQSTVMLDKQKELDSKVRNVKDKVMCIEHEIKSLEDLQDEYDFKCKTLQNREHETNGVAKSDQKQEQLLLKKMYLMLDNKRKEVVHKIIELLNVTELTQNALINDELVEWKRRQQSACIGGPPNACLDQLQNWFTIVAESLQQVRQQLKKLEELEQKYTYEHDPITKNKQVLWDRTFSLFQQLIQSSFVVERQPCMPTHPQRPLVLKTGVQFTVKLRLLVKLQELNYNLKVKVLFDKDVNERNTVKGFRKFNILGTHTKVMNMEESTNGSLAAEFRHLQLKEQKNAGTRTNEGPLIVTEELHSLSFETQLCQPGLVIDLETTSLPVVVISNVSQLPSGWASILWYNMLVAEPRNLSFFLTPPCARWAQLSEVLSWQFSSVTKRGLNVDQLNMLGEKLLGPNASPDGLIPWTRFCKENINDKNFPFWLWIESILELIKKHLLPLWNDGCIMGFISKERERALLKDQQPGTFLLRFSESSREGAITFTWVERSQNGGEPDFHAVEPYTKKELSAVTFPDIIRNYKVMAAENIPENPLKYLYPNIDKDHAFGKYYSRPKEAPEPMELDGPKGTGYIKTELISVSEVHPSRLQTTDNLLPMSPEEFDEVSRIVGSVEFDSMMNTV
# Protocol: To determine affinities and thermodynamic profiles of binding, we performed isothermal titration calorimetry (ITC) experiments for peptides 1, 2, 3, 4, 7, and 8 (Figures A,B and S1,S2, Table S1). […] The experiments were repeated in two different buffer systems, TBST (50 mM Tris pH 8.0, 300 mM NaCl, 0.01% Tween-20) and PBST ([…], 150 mM NaCl, 0.01% Tween-20), to account for possible buffer protonation enthalpy artifacts. […]
# Isothermal titration calorimetry (ITC)
# ITC experiments were performed using a PEAQ ITC instrument (Malvern Panalytical) in either TBST (50 mM Tris pH 8.0, 300 mM NaCl, 0.5 mM TCEP, 0.01% Tween -20) or PBST (10 mM sodium phosphate pH 7.4, 150 mM NaCl, 0.01% Tween -20) as reaction buffers. STAT1 protein was buffer -exchanged into reaction buffer supplemented with 2% DMSO on a NAP -5 deslating column (Cytiv a #17085301) and its concentration was adjusted to 10 or 20 μM.
# Peptides were diluted in reaction buffer from DMSO stocks to a matching 2% DMSO concentration. Peptide concentrations were adjusted to approximately 100-200 μM. ITC experiments were performed with STAT1 in the cell and peptides in the syringe at 25°C, with 750 RPM stirring, DP = 4 μcal/sec. 18 injections of 2 μl were performed over a 50 min titration.
# Thermogram integra tion and isotherm fitting were performed using the PEAQ ITC analysis software (Malvern Panalytical ). Isotherms were fitted using a 1:1 binding model. Due to challenges in determining peptide concentrations with high accuracy , protein concentrations and stoichiometry (N=1.0) were kept constant during isotherm fitting, whereas peptide concentrations were allowed to vary. Fixing a single reactant concentration during fitting is acceptable given the sufficiently high C -values and isotherm curvature observed in the […]
# Offset subtraction was implemented to remove injection heats.
# [2] = target: T2, STAT3 (Homo sapiens, UniProt P40763); assay: biochemical; format: binding; settings: for KD: analyte 10 µM (1, 3, 5) or 0.5 µM (4, 6), n.b. – no binding observed
# T2 construct: STAT3: the gene encoding full-length STAT3 was codon optimised for expression in; MBP (pEXP-MBP vector) (cleaved yes); His tag (IMAC capture, removed with the fusion by TEV and reverse IMAC) (cleaved yes); made in house; host or cells: E. coli T7 Express
# Protocol: In such PPIs, the bulk of the binding energy contribution typically stems from backbone interactions, whereas binding specificity is fine-tuned by side-chain contacts. […] We evaluated the binding kinetics of peptides to full-length STAT3 using GCI.
# Grating coupled interferometry (GCI)
# GCI experiments were performed on a Creoptix WaveDELTA instrument (Malvern Panalytical). Full-length STAT1 or STAT3 were immobilised on a 4PCH chip (Malvern Panalytical #4PCH-03) to a density 2000-8000 pg/mm2 using EDC/NHS activation followed by amine coupling. Briefly, proteins (500 nM) were applied onto an activated chip in 10 mM MES pH 6.5, 20 mM NaCl, after which the chip surface was passivated with 1M ethanolamine, pH 8.0.
# The kinetic measurements were perfor med using 20 mM HEPES pH 7.5, 300 mM NaCl, 0.01% Tween-20, 0.0005% DMSO as running buffer. Peptides were tested at 0.5 or 10 μM concentration using the waveRAPID kinetics experiment with the tight binder or intermediate binder mode, respectively.[4] Sensorgrams were fitted in the waveControl software (Malven Panalytical) using the 1:1 kinetic model. […]
# GCI sensorgrams depicting RAPID kinetics measurements and fitted kinetic models for peptide binding to full-length STAT3 immobilised on a polycarboxylate hydrogel chip (4PCH). Peptides were applied at 0.5 or 10 μM concentration using the medium or tight binders pulse sequence. The peptides that show negligible Rmax values at 10 μM analyte concentration were classified as non-binding.
# (1 picture or pasted object on this page, not shown here)
# [3] = PBST, replicate 1 (first listed run, Table S1)
# [4] = PBST, replicate 2 (second listed run, Table S1)
# [5] = PBST, replicate 3 (third listed run, Table S1)
# [6] = TBST, replicate 1 (first listed run, Table S1)
# [7] = TBST, replicate 2 (second listed run, Table S1)
# [8] = TBST, replicate 3 (third listed run, Table S1)
# T2 sequence (P40763 whole entry, species assumed, the tested form may be a part): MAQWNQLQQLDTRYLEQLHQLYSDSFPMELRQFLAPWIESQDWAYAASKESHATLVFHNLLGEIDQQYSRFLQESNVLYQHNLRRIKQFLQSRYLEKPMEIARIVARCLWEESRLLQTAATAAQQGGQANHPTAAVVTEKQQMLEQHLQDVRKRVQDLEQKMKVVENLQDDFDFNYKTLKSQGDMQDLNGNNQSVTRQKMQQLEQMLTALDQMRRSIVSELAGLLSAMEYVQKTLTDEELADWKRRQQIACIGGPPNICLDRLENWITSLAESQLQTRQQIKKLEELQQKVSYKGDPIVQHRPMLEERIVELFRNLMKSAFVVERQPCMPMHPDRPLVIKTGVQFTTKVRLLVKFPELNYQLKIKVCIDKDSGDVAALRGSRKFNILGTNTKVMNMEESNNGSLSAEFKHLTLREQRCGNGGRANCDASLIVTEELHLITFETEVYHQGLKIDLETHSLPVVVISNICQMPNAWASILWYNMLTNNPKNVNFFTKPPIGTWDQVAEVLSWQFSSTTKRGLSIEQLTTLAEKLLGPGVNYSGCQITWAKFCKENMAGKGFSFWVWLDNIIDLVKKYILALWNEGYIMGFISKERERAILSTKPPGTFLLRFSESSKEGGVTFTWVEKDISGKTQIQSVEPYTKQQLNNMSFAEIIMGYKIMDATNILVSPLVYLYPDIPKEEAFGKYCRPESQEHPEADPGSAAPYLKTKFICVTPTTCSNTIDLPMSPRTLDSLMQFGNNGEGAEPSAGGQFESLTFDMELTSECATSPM
smiles,measurement,setting,value
CC[C@H](C)[C@H](NC(=O)[C@H](Cc1ccccc1)NC(=O)[C@@H](NC(=O)[C@H](CO)NC(=O)[C@H](Cc1c[nH]c2ccccc12)NC(=O)[C@H](CCSC)NC(C)=O)C(C)C)C(=O)N[C@@H](Cc1c[nH]cn1)C(=O)NCC(=O)N[C@@H](Cc1c[nH]cn1)C(=O)N[C@@H](CC(=O)O)C(=O)NCC(=O)N[C@@H](CO)C(=O)N[C@@H](CC(N)=O)C(=O)N[C@@H](CCCCN)C(=O)NCC(=O)N[C@@H](CO)C(=O)N[C@@H](CCCCN)C(=O)N[C@H](C(=O)N[C@@H](Cc1ccc(O)cc1)C(=O)N[C@H](C(N)=O)[C@@H](C)O)[C@@H](C)O [Peptide 1],Kd,"[1]; PBST pH 7.4 (NaPi, 150 mM NaCl, 0.01% Tween-20), average of 2–3 technical replicates, read-out: KD (ITC, summary Fig 2B)",0.253 µM
same,-T∆S,[1]; [3],13.8 kcal/mol
same,∆G,[1]; [3],-9.00 kcal/mol
same,∆H,[1]; [3],-22.8 kcal/mol
same,-T∆S,[1]; [4],12.7 kcal/mol
same,∆G,[1]; [4],-9.17 kcal/mol
same,∆H,[1]; [4],-21.8 kcal/mol
same,-T∆S,[1]; [5],13.7 kcal/mol
same,∆G,[1]; [5],-8.87 kcal/mol
same,∆H,[1]; [5],-22.6 kcal/mol
same,Kd,"[1]; TBST (50 mM Tris pH 8.0, 300 mM NaCl, 0.01% Tween-20), 25°C, 1:1 model, average of three technical replicates ± SD (text and Fig 2A), SD, read-out: KD (ITC)",0.533 ± 0.02 µM
same,-TΔS (ITC),"[1]; TBST, mean ± SD, SD",10.10 ± 1.48 kcal/mol
same,ΔH (ITC),"[1]; TBST, mean ± SD, SD",-18.56 ± 1.55 kcal/mol
same,-T∆S,[1]; [6],9.86 kcal/mol
same,∆G,[1]; [6],-8.54 kcal/mol
same,∆H,[1]; [6],-18.1 kcal/mol
same,-T∆S,[1]; [7],8.75 kcal/mol
same,∆G,[1]; [7],-8.58 kcal/mol
same,∆H,[1]; [7],-17.3 kcal/mol
same,-T∆S,[1]; [8],11.7 kcal/mol
same,∆G,[1]; [8],-8.55 kcal/mol
same,∆H,[1]; [8],-20.3 kcal/mol
same,KD,"[2]; replicate 1 (first listed run, Table S2)",n.b.
same,KD,"[2]; replicate 2 (second listed run, Table S2)",n.b.
same,"STAT3 binding (GCI), in words","[2]; full-length STAT3, negligible Rmax at 10 μM classified as non-binding",not detected
